# Assay results: patent publication US12168664B2, “Triazolopyrimidines, their preparation and use” (THE TRUSTEES OF COLUMBIA UNIVERSITY IN THE CITY OF NEW YORK, priority 2018, dated 2024)
# Several values for one entry are separate records, joined by “and”; a condition that tells them apart may be missing. Identical values can stand only once.
# Tests used:
# CYP2C19 = CYP2C19 (Homo sapiens (Human), UniProt P33261); assay: CYP inhibition, fluorescent, CYP2C19; assay type: in vitro ADME
# Experimental: (§1) The compounds listed below were tested in various metabolic stability and CYP inhibition assays.
# RBP4-TTR interaction = RBP4-TTR interaction (Homo sapiens (Human), UniProt P02753); assay: HTRF (TR-FRET) assay for antagonists of retinol-induced RBP4-TTR interaction; assay type: biochemical; details: in the presence of 1 μM retinol
# Text: TR-FRET Assay for Retinol-Induced RBP4-TTR Interaction
# Binding of a desired RBP4 antagonist displaces retinol and induces hindrance for RBP4-TTR interaction resulting in the decreased FRET signal (FIG. 7). Bacterially expressed MBP-RBP4 and untagged TTR were used in this assay. For the use in the TR-FRET assay, the maltose binding protein (MBP)-tagged human RBP4 fragment (amino acids 19-201) was expressed in the Gold(DE3)pLysS E. coli strain (Stratagene) using the pMAL-c4x vector. Following cell lysis, recombinant RBP4 was purified from the soluble fraction using the ACTA FPLC system (GE Healthcare) equipped with the 5-ml the MBP Trap HP column. Human untagged TTR was purchased from Calbiochem. Untagged TTR was labeled directly with Eu^3+ Cryptate-NHS using the HTRF Cryptate Labeling kit from CisBio following the manufacturer's recommendations. HTRF assay was performed in white low volume 384 well plates (Greiner-Bio) in a final assay volume of 16 μl per well. […] Titration of test compounds in this assay was conducted in the presence of 1 μM retinol. […] TR-FRET signal was measured in the SpectraMax M5e Multimode Plate Reader (Molecular Device). […] The TR-FRET signal was expressed as the ratio of fluorescence intensity: Flu665/Flu620×10,000.
# The compounds listed below were tested in two in vitro assays, RBP4 binding (SPA) and retinol-dependent RBP4-TTR interaction (HTRF) (Table 1).
# CYP2C9 = CYP2C9 (Homo sapiens (Human), UniProt P11712); assay: CYP inhibition, fluorescent, CYP2C9; assay type: in vitro ADME
# Experimental: as §1
# serum RBP4 [1] = target: T1, serum RBP4 (Mus musculus (Mouse), UniProt Q00724); assay: Serum RBP4 in Abca4−/− mice after 8-week dosing in chow; assay type: in vivo; details: 35 mg/kg daily oral in chow, 8 weeks
# Experimental: (§2) Effect of 7a on accumulation of N-retinylidene-N-retinylethanolamine (A2E) in Eyes of the Abca4^−/− Mice
# (§3) Animal protocols were approved by the Institutional Animal Care and Use Committee of Columbia University and complied with guidelines set forth by The Association for Research in Vision and Ophthalmology. […] Abca4^−/− (knockout) and C57BL/6J (wild-type control) mice were raised under 12 h on-off cyclic lighting with an in-cage illuminance of 30-50 lux. For long-term oral dosing 7a was formulated into Purina 5035 rodent chow at Research Diets, Inc. (New Brunswick, NJ) to ensure consistent 35 mg/kg daily oral dosing. Animals were administered the AKR-XI-85-containing chow for 8 weeks. Blood samples were collected at baseline and at the end of the dosing period for serum RBP4 measurements. Whole blood was drawn into a centrifuge tube and was let clot at room temperature for 30 min followed by centrifugation at 2,000×g for 15 minutes at +4° C. to collect serum. Serum RBP4 was measured using the RBP4 (mouse/rat) dual ELISA kit (AdipoGen) following the manufacturer's instructions.
# To assess pre-clinical efficacy of 7a in the mouse Abca4^−/− model, the compound was formulated into a standard mouse chow to provide the daily oral dosing of 35 mg/kg. Long-term 8-week dosing of the compound formulated into a chow was conducted in Abca4^−/− mice. […]
# A2E = A2E (bisretinoid) accumulation in eyes of Abca4−/− mice, HPLC of eyecups; assay type: in vivo; details: 35 mg/kg daily oral in chow, 8 weeks, p=0.0007
# Experimental: as §2
# as §3, with “Blood samples were collected at baseline and at the end of the dosing period for serum RBP4 measurements. Whole blood was drawn into a centrifuge tube and was let clot at room temperature for 30 min followed by centrifugation at 2,000×g for 15 minutes at +4° C. to collect serum.” left out
# After the completion of dosing, animals were euthanized and posterior eyecups consisting of sclera, choroid and RPE were prepared from enucleated eyes according to the standard techniques. […] A previously established HPLC method (Journal of Biological Chemistry, 275, 29354-29360) was utilized for quantifying A2E in mouse eyecups. Quantitation of A2E was conducted by manually integrating the A2E peak (approximately 12-min elution time) which was identified by the co-elution with the synthetic A2E standard and by characteristic absorbance spectrum. […]
# serum RBP4 [2] = target: T1, serum RBP4; assay: Serum RBP4 reduction in Balb/c mice after a single oral administration; assay type: in vivo
# Experimental: Pharmacodynamic Studies of 7a and 7p in Balb/c Mice Following a Single Oral Administration
# Animal protocols were approved by the Institutional Animal Care and Use Committee of Columbia University and complied with guidelines set forth by The Association for Research in Vision and Ophthalmology. Compounds were prepared as a suspension in 0.9% NaCl, 2% Tween 80 for oral administration. Compounds were administered to Balb/c mice in a volume of 100 μL through oral gavage. The doses used were 15 mg/kg, 25 mg/kg and 35 mg/kg for 7a while two doses, 25 mg/kg and 35 mg/kg, were tested for DENG-31(FFB-0000082). Blood samples were collected at pre-dose and 1 hr, 2 hr, 4 hr, 6 hr, 8 hr, and 24 hr timepoints. Whole blood was drawn into a centrifuge tube and was let clot at room temperature for 30 min followed by centrifugation at 2,000×g for 15 minutes at +4° C. to collect serum. Serum RBP4 was measured using the RBP4 (mouse/rat) dual ELISA kit (AdipoGen) following the manufacturer's instructions.
# In order to attain this objective, the effect of oral compound administration was studied in mice. Three doses of compound 7a and two doses of 7p were tested in Balb/c mice assay for reduction of serum RBP4.
# [3] = Metabolic stability in liver microsomes (HLM); assay type: in vitro ADME, human
# Experimental: as §1
# Sequence of CYP2C9 (P11712 whole entry, species assumed): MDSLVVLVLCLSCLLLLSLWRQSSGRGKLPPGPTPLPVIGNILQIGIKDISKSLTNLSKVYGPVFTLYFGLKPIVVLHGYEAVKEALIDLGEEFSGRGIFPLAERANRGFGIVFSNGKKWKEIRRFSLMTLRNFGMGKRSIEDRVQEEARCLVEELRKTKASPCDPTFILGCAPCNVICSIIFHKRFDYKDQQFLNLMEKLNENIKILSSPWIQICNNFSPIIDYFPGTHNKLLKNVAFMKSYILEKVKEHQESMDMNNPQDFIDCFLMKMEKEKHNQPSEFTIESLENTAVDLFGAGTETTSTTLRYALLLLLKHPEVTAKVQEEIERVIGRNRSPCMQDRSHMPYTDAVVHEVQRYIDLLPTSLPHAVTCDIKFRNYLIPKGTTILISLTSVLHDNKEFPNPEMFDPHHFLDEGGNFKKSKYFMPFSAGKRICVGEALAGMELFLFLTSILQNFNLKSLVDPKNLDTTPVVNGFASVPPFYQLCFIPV
# Sequence of CYP2C19 (P33261 whole entry, species assumed): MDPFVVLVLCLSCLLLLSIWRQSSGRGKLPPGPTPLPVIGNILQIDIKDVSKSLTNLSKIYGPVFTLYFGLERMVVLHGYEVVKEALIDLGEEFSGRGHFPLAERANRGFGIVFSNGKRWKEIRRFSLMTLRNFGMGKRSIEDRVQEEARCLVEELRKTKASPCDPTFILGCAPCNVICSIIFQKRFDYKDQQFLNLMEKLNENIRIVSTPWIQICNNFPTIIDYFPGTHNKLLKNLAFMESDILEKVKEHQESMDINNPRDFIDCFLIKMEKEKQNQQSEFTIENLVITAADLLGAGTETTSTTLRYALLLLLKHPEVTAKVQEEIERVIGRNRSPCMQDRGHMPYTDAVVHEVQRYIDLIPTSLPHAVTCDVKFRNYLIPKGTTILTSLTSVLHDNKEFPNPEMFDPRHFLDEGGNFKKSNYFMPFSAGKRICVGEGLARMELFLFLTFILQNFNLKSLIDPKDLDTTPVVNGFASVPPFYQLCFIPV
compound,measurement,setting,value
O=C(c1nc2ncccn2n1)N1C[C@H]2C[C@@H](c3ccccc3C(F)(F)F)C[C@H]2C1 [Compound 7a],IC50,CYP2C19,> 20 µM
same,IC50,RBP4-TTR interaction,209 nM and 194 nM and 240 nM
same,IC50,CYP2C9,> 100 µM
same,serum RBP4 reduction at end of 8-week treatment,serum RBP4 [1],Approximately 70%
same,A2E reduction vs control chow-treated Abca4−/− animals,A2E,69%
same,maximum serum RBP4 reduction,"serum RBP4 [2]; single 15 mg/kg PO, at 4 hr",83%
same,maximum serum RBP4 reduction,"serum RBP4 [2]; single 25 mg/kg PO, at 6 hr timepoint",86%
same,maximum serum RBP4 reduction,"serum RBP4 [2]; single 35 mg/kg PO, at 8 hr timepoint",89%
same,"Metabolic stability in liver microsomes: % Remaining at 30 min, HLM",[3],85%
